≈ marks a conversion by molar mass, not a printed value. Where a name gives a salt, the structure may show the parent alone.
Assays:
Format in all cases: cell-based
Ps. aeruginosa Dalgleish = assay: MIC, nutrient agar; details: Pseudomonas aeruginosa, Ps. aeruginosa Dalgleish 10^-2
β-Haemolytic Strep CN10 = assay: MIC, nutrient agar
Klebsiella aerogenes A = assay: MIC, nutrient agar
Staph. aureus Oxford [1] = assay: MIC, nutrient agar; details: Staphylococcus aureus
P. mirabilis C977 = assay: MIC, nutrient agar; details: Proteus mirabilis
Enterobacter cloacae Nl = assay: MIC, nutrient agar
Staph. aureus Russell [2] = assay: MIC, nutrient agar; details: Staphylococcus aureus, Staph. aureus Russell (lactamase-producing strain)
Description: *Lactamase-producing strain
*lactamase producing strain

P. morganii = assay: MIC, nutrient agar; details: Morganella morganii
E. coli JT 4 = assay: MIC, nutrient agar; details: Escherichia coli, JT4
P. rettgeri = assay: MIC, nutrient agar; details: Providencia rettgeri
B. subtilis = assay: MIC, nutrient agar; details: Bacillus subtilis
E. coli JT 1 [3] = assay: MIC, nutrient broth; details: Escherichia coli, JT1
Staph. aureus Oxford [4] = assay: MIC, nutrient broth; details: Staphylococcus aureus
E. coli NCTC 10418 [5] = assay: MIC, nutrient broth; details: Escherichia coli, NCTC10418
Staph. aureus Russell [6] = assay: MIC, nutrient broth; details: Staphylococcus aureus, Staph. aureus Russell (lactamase producing strain)
Description: | *lactamase producing strain

E. coli NCTC 10418 [7] = assay: MIC, nutrient broth (10^-4 dilution); details: Escherichia coli, NCTC10418
Staph. aureus Oxford [8] = assay: MIC, nutrient broth (10^-4 dilution); details: Staphylococcus aureus
E. coli JT 1 [9] = assay: MIC, nutrient broth (10^-4 dilution); details: Escherichia coli, JT1
Staph. aureus Russell [10] = assay: MIC, nutrient broth (10^-4 dilution); details: Staphylococcus aureus, Staph. aureus Russell (lactamase producing strain)
Description: *Lactamase producing strains
*Lactamase producing strain

| SMILES | MIC (Staph. aureus Oxford [1]) [µg/mL] | MIC (Staph. aureus Russell [2]) [µg/mL] | MIC (B. subtilis) [µg/mL] | MIC (E. coli NCTC 10418 [7]) [µg/mL] | MIC (Staph. aureus Oxford [8]) [µg/mL] | MIC (E. coli JT 1 [9]) [µg/mL] | MIC (Staph. aureus Russell [10]) [µg/mL] | MIC (β-Haemolytic Strep CN10) [µg/mL] | other results |
| --- | --- | --- | --- | --- | --- | --- | --- | --- | --- |
| O=C(COc1ccccc1)N[C@@H]1C(=O)N2C(C(=O)O)=Cc3c(-c4ccc([N+](=O)[O-])cc4)nnn3[C@H]12 [Compound 33, (3aR,4S) 4,5-Dihydro-5-oxo-9-p-nitrophenyl-4-phenoxy-acetamido-3aH azeto[1,2-a]v-triazolo[3,4-c]pyrimidine-7-carboxylic acid] |  |  |  |  |  |  |  |  | MIC (E. coli JT 1 [3]): 500 µg/mL (≈ 1050 µM); MIC (Staph. aureus Oxford [4]): 16 µg/mL (≈ 33.6 µM); MIC (E. coli NCTC 10418 [5]): 500 µg/mL (≈ 1050 µM); MIC (Staph. aureus Russell [6]): 31 µg/mL (≈ 65.1 µM) |
| N[C@@H](C(=O)N[C@@H]1C(=O)N2C(C(=O)O)=Cc3c(-c4ccccc4)nnn3[C@H]12)c1ccccc1 [Compound 24, (3aR,4S)-4,5-Dihydro-5-oxo-9-phenyl-4-D-α-phenylglycylamino-3aH-azeto[1,2-a]v-triazolo [3,4-c]pyrimidine-7-carboxylic acid, trifluoroacetic acid salt] |  |  |  | 125 | 62 | 125 | 125 |  |  |
| O=C(O)C1=Cc2c(-c3ccccc3)nnn2[C@@H]2[C@H](NC(=O)[C@H](O)c3ccccc3)C(=O)N12 [Compound 18, (3aR,4S) 4,5-Dihydro-5-oxo-9-phenyl-4-D-mandelylamino-3aH-azeto-[1,2a]v-triazolo[3,4-c]pyrimidine-7-carboxylic acid] |  |  |  | 125 (≈ 290 µM) | 31 (≈ 71.9 µM) | 125 (≈ 290 µM) | 125 (≈ 290 µM) |  |  |

Second part, led by results:

| MIC (Staph. aureus Oxford [1]) [µg/mL] | MIC (Staph. aureus Russell [2]) [µg/mL] | MIC (B. subtilis) [µg/mL] | MIC (E. coli NCTC 10418 [7]) [µg/mL] | MIC (Staph. aureus Oxford [8]) [µg/mL] | MIC (E. coli JT 1 [9]) [µg/mL] | MIC (Staph. aureus Russell [10]) [µg/mL] | SMILES | MIC (β-Haemolytic Strep CN10) [µg/mL] | other results |
| --- | --- | --- | --- | --- | --- | --- | --- | --- | --- |
| 2.5 (≈ 6.77 µM) | 5 (≈ 13.5 µM) | < 0.2 |  |  |  |  | CC1=C(C(=O)O)N2C(=O)[C@@H](NC(=O)COc3ccccc3)[C@H]2n2nncc21 [Compound 41, (3aR,4S) 4,5-Dihydro-5-oxo-8-methyl-4-phenoxyacetamido-3aH azeto[1,2-a]v-triazolo[3,4-c]pyrimidine-7-carboxylate acid] | 0.5 (≈ 1.35 µM) | MIC (Ps. aeruginosa Dalgleish): 100 µg/mL (≈ 271 µM); MIC (Klebsiella aerogenes A): 100 µg/mL (≈ 271 µM); MIC (P. mirabilis C977): > 100 µg/mL; MIC (Enterobacter cloacae Nl): 100 µg/mL (≈ 271 µM); MIC (P. morganii): > 100 µg/mL; MIC (E. coli JT 4): 100 µg/mL (≈ 271 µM); MIC (P. rettgeri): 100 µg/mL (≈ 271 µM) |
| 10 (≈ 28.1 µM) | 50 (≈ 141 µM) | 2.5 (≈ 7.04 µM) |  |  |  |  | O=C(COc1ccccc1)N[C@@H]1C(=O)N2C(C(=O)O)=Cc3cnnn3[C@H]12 [Compound 11, (3aR,4S)4,5-dihydro-5-oxo-4-phenoxyacetamido-3aH-azeto-[1,2-a]v-triazolo[3,4-c]pyrimidine-7-carboxylic acid] | 10 (≈ 28.1 µM) |  |
